Data on 15 compounds can be found in patent US20240024488A1, “COMPOUNDS AND USES THEREOF” (Foghorn Therapeutics Inc., priority 2020, published 2024).

One test has as its target T1, HiBit-BRM fusion protein (Homo sapiens, UniProt P51531).
T1 construct: expressed in transfected cells
The experiment in a line: HiBiT-BRM cell-based degradation assay (Nano-Glo HiBiT Lytic Detection, 24 h). To be noted: HeLa cell line expressing HiBiT-BRM; for DC50: read-out: BRM HiBit Degradation IC50. The method in brief: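 Luminescence from reconstituted NanoBiT luciferase in lysed HeLa HiBiT-BRM cells served as the measure of remaining BRM after 24 h treatment. Compounds were tested from 30 μM final downward in 3-fold steps. DMSO and 2 μM of a standard BRM/BRG1 degrader defined the scale limits.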
A general note: HiBiT is a short tag that completes a luciferase, so light tracks the accessible tagged protein.

Test [1] addresses T2, HiBit-BRG1 fusion protein (Homo sapiens, UniProt P51532).
T2 construct: expressed in transfected cells
Briefly: HiBiT-BRG1 cell-based degradation assay (Nano-Glo HiBiT Lytic Detection, 24 h). The following applies: HeLa cell line expressing HiBit-BRG1 and LgBit; for Dmax: read-out: BRG1 HiBit Degradation Maximum (%); for DC50: read-out: BRMG1 HiBit Degradation IC50. An outline of the steps: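 Percent degradation derived from lytic HiBiT signal, normalized to DMSO-treated cells and to cells given 2 μM of a known BRM/BRG1 degrader. The HeLa line stably expressed HiBit-BRG1 and LgBit; treatment lasted 24 h at 5000 cells per well.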

T1 sequence (P51531 whole entry, the tested form may be a part): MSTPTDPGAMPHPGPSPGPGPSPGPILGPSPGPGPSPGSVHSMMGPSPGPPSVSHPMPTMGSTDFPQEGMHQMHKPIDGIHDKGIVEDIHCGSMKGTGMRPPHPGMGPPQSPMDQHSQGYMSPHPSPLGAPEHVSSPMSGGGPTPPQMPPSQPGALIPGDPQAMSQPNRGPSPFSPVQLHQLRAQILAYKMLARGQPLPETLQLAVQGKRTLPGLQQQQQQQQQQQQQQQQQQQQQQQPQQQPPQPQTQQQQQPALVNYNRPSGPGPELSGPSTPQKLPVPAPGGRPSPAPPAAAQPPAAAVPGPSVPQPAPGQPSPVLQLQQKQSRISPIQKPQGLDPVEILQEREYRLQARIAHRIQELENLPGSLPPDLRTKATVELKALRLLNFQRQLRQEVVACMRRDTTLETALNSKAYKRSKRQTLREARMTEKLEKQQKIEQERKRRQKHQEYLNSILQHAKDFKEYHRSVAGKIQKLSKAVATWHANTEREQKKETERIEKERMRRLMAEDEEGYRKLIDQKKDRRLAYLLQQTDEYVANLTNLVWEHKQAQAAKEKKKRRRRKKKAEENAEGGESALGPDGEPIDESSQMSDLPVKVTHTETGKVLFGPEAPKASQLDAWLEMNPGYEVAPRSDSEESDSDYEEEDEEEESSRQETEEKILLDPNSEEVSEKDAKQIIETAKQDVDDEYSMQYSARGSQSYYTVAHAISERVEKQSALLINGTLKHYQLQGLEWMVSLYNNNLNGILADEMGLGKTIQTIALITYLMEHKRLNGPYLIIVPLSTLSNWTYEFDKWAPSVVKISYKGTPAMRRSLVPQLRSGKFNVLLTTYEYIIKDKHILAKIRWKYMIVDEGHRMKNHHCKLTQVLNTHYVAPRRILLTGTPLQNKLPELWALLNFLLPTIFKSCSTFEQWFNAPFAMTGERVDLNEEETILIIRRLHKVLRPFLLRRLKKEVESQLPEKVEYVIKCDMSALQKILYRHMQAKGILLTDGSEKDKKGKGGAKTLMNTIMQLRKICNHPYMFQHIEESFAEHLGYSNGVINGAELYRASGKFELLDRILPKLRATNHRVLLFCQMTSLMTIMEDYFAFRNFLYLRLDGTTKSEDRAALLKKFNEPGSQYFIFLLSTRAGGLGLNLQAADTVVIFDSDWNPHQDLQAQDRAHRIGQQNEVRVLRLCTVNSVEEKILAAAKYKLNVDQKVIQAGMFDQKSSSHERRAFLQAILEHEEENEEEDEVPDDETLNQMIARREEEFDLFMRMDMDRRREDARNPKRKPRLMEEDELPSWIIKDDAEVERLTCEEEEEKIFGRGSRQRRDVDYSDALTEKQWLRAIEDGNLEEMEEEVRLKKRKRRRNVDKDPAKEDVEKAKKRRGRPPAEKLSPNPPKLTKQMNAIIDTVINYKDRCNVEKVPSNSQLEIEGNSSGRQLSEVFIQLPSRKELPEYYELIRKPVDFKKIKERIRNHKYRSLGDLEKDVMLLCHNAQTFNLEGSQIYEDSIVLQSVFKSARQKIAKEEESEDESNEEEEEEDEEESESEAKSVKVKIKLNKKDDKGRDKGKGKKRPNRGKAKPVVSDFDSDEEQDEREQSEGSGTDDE
T2 sequence (P51532 whole entry, the tested form may be a part): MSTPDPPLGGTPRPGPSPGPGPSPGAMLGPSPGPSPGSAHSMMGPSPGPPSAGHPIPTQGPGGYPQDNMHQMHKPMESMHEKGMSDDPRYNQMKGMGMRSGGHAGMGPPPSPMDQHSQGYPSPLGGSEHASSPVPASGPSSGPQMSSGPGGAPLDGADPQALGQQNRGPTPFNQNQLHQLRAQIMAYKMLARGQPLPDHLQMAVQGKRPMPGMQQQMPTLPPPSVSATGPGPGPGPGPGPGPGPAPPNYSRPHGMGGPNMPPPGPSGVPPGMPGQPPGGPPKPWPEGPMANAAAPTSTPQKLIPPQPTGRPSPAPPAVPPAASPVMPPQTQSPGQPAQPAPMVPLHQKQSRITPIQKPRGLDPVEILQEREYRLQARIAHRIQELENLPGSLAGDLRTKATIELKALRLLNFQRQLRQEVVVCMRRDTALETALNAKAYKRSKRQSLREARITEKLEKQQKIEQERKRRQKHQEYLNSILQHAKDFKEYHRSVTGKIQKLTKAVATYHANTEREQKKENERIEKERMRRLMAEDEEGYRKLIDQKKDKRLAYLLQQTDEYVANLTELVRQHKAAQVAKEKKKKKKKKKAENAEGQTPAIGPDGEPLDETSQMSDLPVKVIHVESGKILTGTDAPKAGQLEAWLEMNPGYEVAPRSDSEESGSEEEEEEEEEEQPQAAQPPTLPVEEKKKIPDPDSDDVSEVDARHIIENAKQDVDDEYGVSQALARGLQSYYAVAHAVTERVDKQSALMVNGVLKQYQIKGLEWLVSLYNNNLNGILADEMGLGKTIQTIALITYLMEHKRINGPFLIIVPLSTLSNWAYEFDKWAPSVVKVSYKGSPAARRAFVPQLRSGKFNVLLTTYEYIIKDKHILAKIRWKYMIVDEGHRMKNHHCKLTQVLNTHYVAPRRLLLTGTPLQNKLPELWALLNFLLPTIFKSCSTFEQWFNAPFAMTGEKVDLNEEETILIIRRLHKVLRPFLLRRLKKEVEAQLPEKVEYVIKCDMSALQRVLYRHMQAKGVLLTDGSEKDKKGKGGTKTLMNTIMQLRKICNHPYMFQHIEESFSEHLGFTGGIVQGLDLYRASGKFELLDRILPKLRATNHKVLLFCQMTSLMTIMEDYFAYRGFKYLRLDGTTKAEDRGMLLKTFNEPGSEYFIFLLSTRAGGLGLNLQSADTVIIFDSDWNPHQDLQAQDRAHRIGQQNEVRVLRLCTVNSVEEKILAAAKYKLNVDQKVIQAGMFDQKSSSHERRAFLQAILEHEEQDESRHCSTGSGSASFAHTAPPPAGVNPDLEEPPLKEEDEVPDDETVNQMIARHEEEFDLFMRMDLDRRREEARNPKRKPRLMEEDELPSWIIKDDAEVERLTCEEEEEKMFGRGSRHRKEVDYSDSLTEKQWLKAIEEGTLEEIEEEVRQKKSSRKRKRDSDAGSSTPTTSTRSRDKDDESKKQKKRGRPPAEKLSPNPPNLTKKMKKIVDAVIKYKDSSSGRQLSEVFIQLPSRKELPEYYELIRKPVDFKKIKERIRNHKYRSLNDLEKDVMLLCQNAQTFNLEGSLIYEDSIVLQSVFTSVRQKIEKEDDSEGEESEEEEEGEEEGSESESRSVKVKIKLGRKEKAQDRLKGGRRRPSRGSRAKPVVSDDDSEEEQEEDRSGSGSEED

As for `Cc1ncsc1-c1ccc([C@H](C)NC(=O)[C@@H]2C[C@@H](O)CN2C(=O)[C@@H](c2cc(OCCNC3CC4(C3)CC(c3cc5cc(-c6ccccc6O)nnc5[nH]3)C4)no2)C(C)C)cc1` (mixture of isomers) [Compound 223, (2S,4R)-4-hydroxy-1-((R)-2-(3-(2-((6-(3-(2-hydroxyphenyl)-7H-pyrrolo[2,3-c]pyridazin-6-yl)spiro[3.3]heptan-2-yl)amino)ethoxy)isoxazol-5-yl)-3-methylbutanoyl)-N-((S)-1-(4-(4-methylthiazol-5-yl)phenyl)ethyl)pyrrolidine-2-carboxamide], at HiBit-BRM fusion protein, the “BRM HiBit Degradation Maximum (%)” value is reported as “A (“A” indicates maximum degradation ≥ 75%)” and the DC50 was > 10 nM. In test [1], the Dmax was > 75% and the DC50 is > 100 nM.

As for `Cc1ncsc1-c1ccc([C@H](C)NC(=O)[C@@H]2C[C@@H](O)CN2C(=O)[C@@H](c2cc(OCCN3CC(c4[nH]c5nnc(-c6cc(F)cc(Cl)c6O)cc5c4C)C3)no2)C(C)C)cc1` (racemic) [Compound 129, (2S,4R)-1-((R)-2-(3-(2-(3-(3-(3-chloro-5-fluoro-2-hydroxyphenyl)-5-methyl-7H-pyrrolo[2,3-c]pyridazin-6-yl)azetidin-1-yl)ethoxy)isoxazol-5-yl)-3-methylbutanoyl)-4-hydroxy-N-((S)-1-(4-(4-methylthiazol-5-yl)phenyl)ethyl)pyrrolidine-2-carboxamide], at HiBit-BRM fusion protein, the “BRM HiBit Degradation Maximum (%)” value was “A (“A” indicates maximum degradation ≥ 75%)” and the DC50 is > 10 nM. For the same compound, in test [1], the Dmax is > 50% and the DC50 is > 100 nM.

In the case of `Cc1ncsc1-c1ccc([C@H](C)NC(=O)[C@@H]2C[C@@H](O)CN2C(=O)C(c2cc(N3CCC(C(=O)N4CC(c5cc6cc(-c7ccccc7O)nnc6[nH]5)C4)CC3)no2)C(C)C)cc1` (mixture of isomers) [Compound 274, (2S,4R)-4-hydroxy-1-((S)-2-(3-(4-(3-(3-(2-hydroxyphenyl)-7H-pyrrolo[2,3-c]pyridazin-6-yl)azetidine-1-carbonyl)piperidin-1-yl)isoxazol-5-yl)-3-methylbutanoyl)-N-((S)-1-(4-(4-methylthiazol-5-yl)phenyl)ethyl)pyrrolidine-2-carboxamide], on HiBit-BRM fusion protein, the “BRM HiBit Degradation Maximum (%)” value is given as “A (“A” indicates maximum degradation ≥ 75%)” and the DC50 was > 10 nM. Further, in test [1], the Dmax is > 75% and the DC50 is > 100 nM.

With `Cc1ncsc1-c1ccc([C@H](C)NC(=O)[C@@H]2C[C@@H](O)CN2C(=O)[C@@H](c2cc(N3C[C@@H]4C[C@H]3CN4C(=O)[C@@H]3CCc4[nH]c5nnc(-c6ccccc6O)cc5c4C3)no2)C(C)C)cc1` (single isomer, unassigned) [Compound 102], the “BRM HiBit Degradation Maximum (%)” value on HiBit-BRM fusion protein is recorded as “A (“A” indicates maximum degradation ≥ 75%)”. Further, the Dmax in test [1] was < 50%.

On to `Cc1ncsc1-c1ccc([C@H](C)NC(=O)[C@@H]2C[C@@H](O)CN2C(=O)[C@@H](c2onc(OCCN3CC(c4cc5cc(-c6ccccc6O)nnc5[nH]4)C3)c2Cl)C(C)C)cc1` (racemic) [Compound 266, (2S,4R)-1-((R)-2-(4-chloro-3-(2-(3-(3-(2-hydroxyphenyl)-7H-pyrrolo[2,3-c]pyridazin-6-yl)azetidin-1-yl)ethoxy)isoxazol-5-yl)-3-methylbutanoyl)-4-hydroxy-N-((S)-1-(4-(4-methylthiazol-5-yl)phenyl)ethyl)pyrrolidine-2-carboxamide], for which, on HiBit-BRM fusion protein, the “BRM HiBit Degradation Maximum (%)” value was “A (“A” indicates maximum degradation ≥ 75%)” and the DC50 is > 10 nM. For the same compound, in test [1], the Dmax was > 75% and the DC50 was > 100 nM.

As for `Cc1ncsc1-c1ccc([C@H](C)NC(=O)[C@@H]2C[C@@H](O)CN2C(=O)[C@@H](c2cc(OCCCN3CC4(Cc5cc(-c6ccccc6O)nnc5N4)C3)no2)C(C)C)cc1` (racemic) [Compound 84, (2S,4R)-4-hydroxy-1-((R)-2-(3-(3-(3′-(2-hydroxyphenyl)-5′,7′-dihydrospiro[azetidine-3,6′-pyrrolo[2,3-c]pyridazin]-1-yl)propoxy)isoxazol-5-yl)-3-methylbutanoyl)-N-((S)-1-(4-(4-methylthiazol-5-yl)phenyl)ethyl)pyrrolidine-2-carboxamide], the “BRM HiBit Degradation Maximum (%)” value on HiBit-BRM fusion protein is recorded as “C (“C” indicates maximum degradation < 50%)”. For the same compound, in test [1], the Dmax was < 50%.

In the case of `Cc1ncsc1-c1ccc([C@H](C)NC(=O)[C@@H]2C[C@@H](O)CN2C(=O)[C@@H](c2cc(OCCN3CCC[C@@H](c4c[nH]c5nnc(-c6ccccc6O)cc45)C3)no2)C(C)C)cc1` (racemic) [Compound 283, (2S,4R)-4-hydroxy-1-((R)-2-(3-(2-((S)-3-(3-(2-hydroxyphenyl)-7H-pyrrolo[2,3-c]pyridazin-5-yl)piperidin-1-yl)ethoxy)isoxazol-5-yl)-3-methylbutanoyl)-N-((S)-1-(4-(4-methylthiazol-5-yl)phenyl)ethyl)pyrrolidine-2-carboxamide], on HiBit-BRM fusion protein, the “BRM HiBit Degradation Maximum (%)” value is recorded as “B (“B” indicates maximum degradation ≥ 50%)” and the DC50 is > 10 nM. The Dmax in test [1] was < 50%.

Consider `Cc1ncsc1-c1ccc([C@H](C)NC(=O)[C@@H]2C[C@@H](O)CN2C(=O)[C@@H](c2cc(OCCNCc3cc4cc(-c5ccccc5O)nnc4[nH]3)no2)C(C)C)cc1` (racemic) [Compound 212, (2S,4R)-4-hydroxy-1-((R)-2-(3-(2-(((3-(2-hydroxyphenyl)-7H-pyrrolo[2,3-c]pyridazin-6-yl)methyl)amino)ethoxy)isoxazol-5-yl)-3-methylbutanoyl)-N-((S)-1-(4-(4-methylthiazol-5-yl)phenyl)ethyl)pyrrolidine-2-carboxamide], for which, at HiBit-BRM fusion protein, the “BRM HiBit Degradation Maximum (%)” value was “A (“A” indicates maximum degradation ≥ 75%)” and the DC50 is > 100 nM. The Dmax in test [1] was < 50%.

Consider `Cc1ncsc1-c1ccc([C@H](C)NC(=O)[C@@H]2C[C@@H](O)CN2C(=O)[C@@H](c2cc(N3CCN(C(=O)[C@H]4C[C@@]5(Cc6cc(-c7ccccc7O)nnc6N5)C4)CC3)no2)C(C)C)cc1` (racemic) [Compound 80, (2S,4R)-4-hydroxy-1-((R)-2-(3-(4-((1R,3s)-3′-(2-hydroxyphenyl)-5′,7′-dihydrospiro[cyclobutane-1,6′-pyrrolo[2,3-c]pyridazine]-3-carbonyl)piperazin-1-yl)isoxazol-5-yl)-3-methylbutanoyl)-N-((S)-1-(4-(4-methylthiazol-5-yl)phenyl)ethyl)pyrrolidine-2-carboxamide], for which, at HiBit-BRM fusion protein, the “BRM HiBit Degradation Maximum (%)” value is on record as “A (“A” indicates maximum degradation ≥ 75%)” and the DC50 was > 10 nM. The Dmax in test [1] is < 50%.

As to `Cc1ncsc1-c1ccc([C@H](C)NC(=O)[C@@H]2C[C@@H](O)CN2C(=O)[C@@H](c2cc(N3CC(CN4CC(c5cc6cc(-c7ccccc7O)nnc6[nH]5)C4)C3)no2)C(C)C)cc1` (single isomer, unassigned) [Compound 163], on HiBit-BRM fusion protein, the “BRM HiBit Degradation Maximum (%)” value was “A (“A” indicates maximum degradation ≥ 75%)” and the DC50 was > 10 nM. Also, in test [1], the Dmax was > 50% and the DC50 is > 100 nM.

For the compound `Cc1ncsc1-c1ccc(CNC(=O)[C@@H]2C[C@@H](O)CN2C(=O)[C@@H](NC(=O)CCN(C)C23CC(c4cc5cc(-c6ccccc6O)nnc5[nH]4)(C2)C3)C(C)(C)C)cc1` (racemic) [Compound 293, (2S,4R)-4-hydroxy-1-[(2S)-2-[3-([3-[3-(2-hydroxyphenyl)-7H-pyrrolo[2,3-c]pyridazin-6-yl]bicyclo[1.1.1]pentan-1-yl](methyl)amino)propanamido]-3,3-dimethylbutanoyl]-N-[[4-(4-methyl-1,3-thiazol-5-yl)phenyl]methyl]pyrrolidine-2-carboxamide], on HiBit-BRM fusion protein, the “BRM HiBit Degradation Maximum (%)” value is listed as “A (“A” indicates maximum degradation ≥ 75%)” and the DC50 was > 100 nM. Also, in test [1], the Dmax is > 50% and the DC50 was > 1000 nM.

On to `Cc1ncsc1-c1ccc([C@H](C)NC(=O)[C@@H]2C[C@@H](O)CN2C(=O)[C@@H](c2cc(OCCN3CC(CCc4[nH]c5nnc(-c6ccccc6O)cc5c4C)C3)no2)C(C)C)cc1` (single isomer, unassigned) [Compound 198], for which, on HiBit-BRM fusion protein, the “BRM HiBit Degradation Maximum (%)” value is recorded as “A (“A” indicates maximum degradation ≥ 75%)” and the DC50 was > 100 nM. Moreover, in test [1], the Dmax is > 75% and the DC50 is > 100 nM.

Turning to `Cc1ncsc1C12CC(CNC(=O)[C@@H]3C[C@@H](O)CN3C(=O)[C@@H](c3cc(OCCN4CC(c5cc6cc(-c7ccccc7O)nnc6[nH]5)C4)no3)C(C)C)(C1)C2` (single isomer, unassigned) [Compound 115], the “BRM HiBit Degradation Maximum (%)” value at HiBit-BRM fusion protein is “C (“C” indicates maximum degradation < 50%)”. In addition, the Dmax in test [1] was < 50%.

Take `Cc1ncsc1-c1ccc([C@H](C)NC(=O)[C@@H]2C[C@@H](O)CN2C(=O)[C@@H](c2cc(OCCCN3CC(c4cc5cc(-c6ccccc6O)nnc5[nH]4)C3)no2)C(C)C)cc1` (single isomer, unassigned) [Compound 237]: the “BRM HiBit Degradation Maximum (%)” value on HiBit-BRM fusion protein is on record as “C (“C” indicates maximum degradation < 50%)”. Further, the Dmax in test [1] is < 50%.

On to `Cc1ncsc1-c1ccc(CNC(=O)[C@@H]2C[C@@H](O)CN2C(=O)[C@@H](NC(=O)CCCCCCCCCC(=O)N2CC(c3cc4cc(-c5ccccc5O)nnc4[nH]3)C2)C(C)(C)C)cc1` [Compound 5, (2S,4R)-4-hydroxy-1-((S)-2-(11-(3-(3-(2-hydroxyphenyl)-7H-pyrrolo[2,3-c]pyridazin-6-yl)azetidin-1-yl)-11-oxoundecanamido)-3,3-dimethylbutanoyl)-N-(4-(4-methylthiazol-5-yl)benzyl)pyrrolidine-2-carboxamide], for which, at HiBit-BRM fusion protein, the “BRM HiBit Degradation Maximum (%)” value is reported as “A (“A” indicates maximum degradation ≥ 75%)” and the DC50 is > 100 nM. Moreover, the Dmax in test [1] is < 50%.
